Results taken from patent publication US8846752B2, “Isoflavone fatty acid ester derivatives, preparation method and pharmaceutical uses thereof” (China Pharmaceutical University, priority 2010, dated 2014).

Legend:
PPARγ2-mRNA = assay: RT-PCR of PPARγ2-mRNA expression in 3T3-L1 cells; assay type: cell-based; settings: during differentiation of preadipocyte 3T3-L1; GAPDH internal reference; FIG. 4
Method: 4.1.3 Reverse Transcription
Polymerase chain reaction (RT-PCR) experiment Extract the total RNA of fully differentiated 3T3-L1 cells to be reversely transcribed into cDNA. The primers are designed as follows:
• The length of the target product is 567 bp.
• The length of the target product is 424 bp.
PCR amplification conditions: initial denaturation at 94 for 5 min, then denaturize at 94 for 30 s, anneal at 57 for 40 s, and extend at 72 for 50 s, a total of 30 cycles. Finally extend at 72 for 10 min. Then conduct electrophoresis analysis with 1.5% agarose gel. GAPDH is used as the internal reference to alleviate the error between different samples. Compare the optical density of objective band with the optical density of amplified GAPDH band for analysis.

High Fat Diet Rats = assay: Losing weight and depressing blood fat in high-fat diet SD rats; assay type: in vivo; settings: intragastric once a day for a month, compounds 25 mg/kg, sibutramine 1.0 mg/kg, mean ± SD, n = 10
Method: 1. Activity Determination of Losing Weight and Depressing Blood Fat of SD Rats
The experiment refers to the methods in Experimental Methodology of Pharmacology compiled by Xu Shuyun et al, People's Medical Publishing House 2002: 1189-1201, which is slightly modified.
SD rates (weight 80 g-100 g, male, clean grade) are randomly divided into the following groups according to the weight:
Blank control group (normal diet group); model control group (high-fat diet group); sibutramine, 1.0 mg/kg; Group I-1, 25 mg/kg; Group I-2, 25 mg/kg; Group I-3, 25 mg/kg; Group II-1, 25 mg/kg; Group II-2, 25 mg/kg; Group II-3, 25 mg/kg.
Except the blank control group, the other groups are fed with high-fat diet for two months. In the third month, all groups are required for intragastric administration and the blank control group and model control group are given appropriate volume of excipients once a day for a consecutive month. After the administration, exsanguinate and kill the rats, take femoral arterial blood and separate the plasma, and then measure the parameters according to the unified operating procedures in the kit instructions. Remove the fat around abdominal cavity and reproductive organs, weigh its wet weight and determine the body weight.

[1] = tested on: high fat and high sugar model ICR mice; assay: Losing weight, depressing blood fat and regulating blood sugar balance in high fat and high sugar ICR mice; assay type: in vivo; design: Serum insulin concentration INS: unit not given here; settings: n = 10, x ± s; for Celiac total fat / Epididymal fat / MDA (serum oxidative damage indicator) / Mesenteric fat / Perirenal fat / SOD (serum oxidative damage indicator) / Serum insulin concentration INS / Subcutaneous fat / FFA / HDL-C / LDL-C / TC / TG: 50 mg/kg intragastric for 30 days; for Body weight 1 week after / Body weight 2 weeks after / Body weight 3 weeks after / Body weight before administration: high fat and high sugar model; for Body weight 1 week after / Body weight 2 weeks after / Body weight 3 weeks after: 50 mg/kg intragastric daily; for Body weight before administration: baseline before 50 mg/kg intragastric; for FFA / HDL-C / LDL-C / TC / TG: serum
Source text: 2. Activity Determination of Losing Weight, Depressing Blood Fat and Regulating Blood Sugar Balance of ICR Mice
The experiment refers to the methods of Raquel Ferrer-Lorente et al (European Journal of Pharmacology, 2005, 513: 243-248), which are slightly modified.
Take 40 ICR mice (male, weight 13-15 g) and randomly divide them into two large groups according to their weight, a normal diet group (n=10) and a high fat and high sugar model group (n=30); give normal diet to the normal diet group and conduct subcutaneous injection of physiological saline each day; give high-fat and high-sugar diet to the high fat and high sugar model group and conduct subcutaneous injection of insulin (0.5 U/kg) each day. The food is not restricted. Measure the food regularly each day, weigh the weight once a week and feed 7 consecutive weeks.
7 weeks after modeling, the normal diet group is unchanged and the high fat and high sugar model group is divided into model control group (n=10), I-1 administration group (n=10) and I-2 administration group (n=10). The feed of each group is unchanged. The administration group is given corresponding compounds with the dose of 50 mg/kg and the blank group is given the equal volume of blank solvent. Conduct intragastric administration on each group for consecutive 30 days. Weigh 12 h after fasting after last administration, take the eyeballs for blood, prepare serum, determine the blood fat (triglyceride TG, free fatty acid FFA, total cholesterol TC, low density lipoprotein cholesterol LDL-C and high density lipoprotein cholesterol HDL-C) content and blood insulin content and detect the oxidative damage indicators in the blood (malondialdehyde MAD and superoxide dismutase SOD). Take off the cervical vertebrae to kill the rats, separate the perirenal, testicular, mesenteric and inguinal (subcutaneous) white adipose tissue, wash clean with cold physiological saline and dry with filter paper, and then weigh.

KM mice = assay: Acute toxicity test of KM mice; assay type: in vivo
Method: 3. Acute Toxicity Test of KM Mice
3.1 I-1 Acute Toxicity Test of Intragastric Administration (ig) for Mice
3.2 I-1 Acute Toxicity Test of Subcutaneous Injection (sc) for Mice
After sc I-1 2000 mg/kg of mice under the conditions of maximum administration capacity and maximum administration concentration, no mice die and the mice toxic symptoms express as decrease in spontaneous activities and often creeping lying without moving. After about 48 h, mice activities begin to increase. Compared with the control group, the weight gain in subsequent observation period is slower.

3T3-L1 cells [2] = assay: Cell proliferation determination with MTT method; assay type: cell-based; settings: 25, 50, 100 and 200 μmol/L, 2 d; P<0.05 vs blank group; FIG. 1
Method: 4.1.1 Cell Proliferation Determination Experiment with MTT Method
Inoculate 3T3-L1 cells in 96-hole cell culture plate. After 2 d of conventional culture, replace with DMEM culture solutions with different concentrations (25, 50, 100 and 200 μmol/L) of Series I compounds. The control group is the culture solution containing 0.1% (V/V) ethanol (96%). 3 complex holes are set for each concentration in each group, processing 2 d. Discard the culture solution in the holes and add 20 μL MTT solution in each hole and culture at 37 for 4 h. Then discard the solution in the hole, add 100 μL DMSO solution in each hole, shake thoroughly and measure the absorbance (A) immediately in the enzyme-linked immunosorbent assay. The wavelength is measured to be 570 nm.

3T3-L1 cells [3] = assay: Oil red staining colorimetric experiment (preadipocyte differentiation); assay type: cell-based; settings: 8th day of differentiation, 2nd day of administration; FIG. 2 and FIG. 3
Method: 4.1.2 Oil Red Staining Colorimetric Experiment
4.1.2.1 Culture 3T3-L1 cells in conventional medium and replace with differential medium I (DMEM culture solution containing 15% FBS, 0.4 mmol/L IBMX, 10 mg/L insulin and 1 μmol/L DEX) 2 d after the cells are completely merged (0 d of differentiation) for culture for 2 d. In the second day of differentiation, replace with differential medium II (DMEM culture solution containing 15% FBS and 10 mg/L insulin) to culture cells. In the 6th day of differentiation and later, replace with corresponding DMEM culture solution containing series I compounds. The control group is the complete culture solution without drugs.
4.1.2.2. Oil Red O Staining
In the 8th day of differentiation, discard the culture solution in the holes, wash with PBS for twice and add the solution containing 10% methanal to fix cells for 2 h. Wash with PBS for twice and stain with 0.5% oil red for 2 h. Wash with PBS for three times, dry at 37, add isopropanol, extract for 10 min and measure the absorbance value of the extract liquor at 492 nm.

[4] = cited from earlier work

SMILES: CCCCCCCCCCCCCCCC(=O)Oc1ccc2c(=O)c(-c3ccc(OC)cc3)coc2c1 [I-4, 4′-methoxy-7-O-palmityl daizeol]
- PPARγ2-mRNA expression quantity (PPARγ2-mRNA): significantly decreased

SMILES: CCCCCCCC/C=C\CCCCCCCC(=O)Oc1ccc(-c2coc3cc(OC)ccc3c2=O)cc1 [II-1, 7-methoxy-4′-O-oleoyl daizeol]
- Fat index (High Fat Diet Rats): 5.6 ± 1.6 g/100 g
- Free fatty acid FFA (High Fat Diet Rats): 696.3 ± 205.4 µmol/L
- Total cholesterol TC (High Fat Diet Rats): 1.65 ± 0.25 mmol/L
- Triglyceride TG (High Fat Diet Rats): 1.01 ± 0.24 mmol/L
- Weight after administration (High Fat Diet Rats): 328 ± 32 g

SMILES: CCCCC/C=C\C/C=C\CCCCCCCC(=O)Oc1ccc2c(=O)c(-c3ccc(OC)cc3)coc2c1 [I-2, 4′-methoxy-7-O-linoleoyl daizeol]
- Celiac total fat [1]: 0.329 ± 0.403 g
- Epididymal fat [1]: 0.212 ± 0.239 g
- MDA (serum oxidative damage indicator) [1]: 1.288 ± 0.145 nmol/L
- Mesenteric fat [1]: 0.058 ± 0.101 g
- Perirenal fat [1]: 0.059 ± 0.057 g
- SOD (serum oxidative damage indicator) [1]: 424.1 ± 192.8 U/ml
- Serum insulin concentration INS [1]: 22.32 ± 6.39
- Subcutaneous fat [1]: 0.099 ± 0.071 g
- Body weight 1 week after [1]: 39.1 ± 4.1 g
- Body weight 2 weeks after [1]: 32.9 ± 5.7 g
- Body weight 3 weeks after [1]: 29.5 ± 2.3 g
- Body weight before administration [1]: 42.0 ± 4.4 g
- FFA [1]: 0.43 ± 0.04 mmol/L
- HDL-C [1]: 1.56 ± 0.29 mmol/L
- LDL-C [1]: 0.880 ± 0.655 mmol/L
- TC [1]: 3.18 ± 0.46 mmol/L
- TG [1]: 0.71 ± 0.22 mmol/L
- Fat index (High Fat Diet Rats): 4.3 ± 1.5 g/100 g
- Free fatty acid FFA (High Fat Diet Rats): 603.8 ± 163.5 µmol/L
- Total cholesterol TC (High Fat Diet Rats): 1.28 ± 0.26 mmol/L
- Triglyceride TG (High Fat Diet Rats): 0.99 ± 0.21 mmol/L
- Weight after administration (High Fat Diet Rats): 307 ± 32 g
- PPARγ2-mRNA expression quantity (PPARγ2-mRNA): increased

SMILES: CCCCCCCC/C=C\CCCCCCCC(=O)Oc1ccc2c(=O)c(-c3ccc(OC)cc3)coc2c1 [I-1, 4′-methoxy-7-O-oleoyl daizeol]
- LD50 (KM mice; intragastric administration (ig)): 2163.8 mg/kg
- Mortality (KM mice; subcutaneous injection (sc) 2000 mg/kg, maximum administration capacity and concentration): no mice die
- Celiac total fat [1]: 0.595 ± 0.172 g
- Epididymal fat [1]: 0.382 ± 0.230 g
- MDA (serum oxidative damage indicator) [1]: 0.810 ± 0.162 nmol/L
- Mesenteric fat [1]: 0.135 ± 0.047 g
- Perirenal fat [1]: 0.078 ± 0.050 g
- SOD (serum oxidative damage indicator) [1]: 382.3 ± 200.9 U/ml
- Serum insulin concentration INS [1]: 20.26 ± 2.69
- Subcutaneous fat [1]: 0.136 ± 0.065 g
- Body weight 1 week after [1]: 39.1 ± 5.2 g
- Body weight 2 weeks after [1]: 33.8 ± 3.7 g
- Body weight 3 weeks after [1]: 31.5 ± 2.0 g
- Body weight before administration [1]: 41.8 ± 5.7 g
- FFA [1]: 0.55 ± 0.14 mmol/L
- HDL-C [1]: 1.70 ± 0.53 mmol/L
- LDL-C [1]: 1.068 ± 0.636 mmol/L
- TC [1]: 2.79 ± 0.39 mmol/L
- TG [1]: 0.97 ± 0.21 mmol/L
- Fat index (High Fat Diet Rats): 5.0 ± 1.6 g/100 g
- Free fatty acid FFA (High Fat Diet Rats): 606.7 ± 144.7 µmol/L
- Total cholesterol TC (High Fat Diet Rats): 1.31 ± 0.27 mmol/L
- Triglyceride TG (High Fat Diet Rats): 0.91 ± 0.22 mmol/L
- Weight after administration (High Fat Diet Rats): 309 ± 36 g
- Proliferation of preadipocyte 3T3-L1 (MTT, OD value) (3T3-L1 cells [2]): significant inhibition action
- PPARγ2-mRNA expression quantity (PPARγ2-mRNA): increased
- Adipose differentiation of 3T3-L1 cells (oil red stained lipid droplets) (3T3-L1 cells [3]): lipid droplets are significantly decreased

SMILES: CCCCCCCCCCCCCCCCCC(=O)Oc1ccc(-c2coc3cc(OC)ccc3c2=O)cc1 [II-3, 7-methoxy-4′-O-stearoyl daizeol]
- Fat index (High Fat Diet Rats): 6.0 ± 2.1 g/100 g
- Free fatty acid FFA (High Fat Diet Rats): 738.1 ± 196.0 µmol/L
- Total cholesterol TC (High Fat Diet Rats): 1.71 ± 0.34 mmol/L
- Triglyceride TG (High Fat Diet Rats): 1.35 ± 0.35 mmol/L
- Weight after administration (High Fat Diet Rats): 352 ± 47 g

SMILES: CCCCC/C=C\C/C=C\CCCCCCCC(=O)Oc1ccc(-c2coc3cc(OC)ccc3c2=O)cc1 [II-2, 7-methoxy-4′-O-linoleoyl daizeol]
- Fat index (High Fat Diet Rats): 5.1 ± 1.3 g/100 g
- Free fatty acid FFA (High Fat Diet Rats): 658.8 ± 201.2 µmol/L
- Total cholesterol TC (High Fat Diet Rats): 1.67 ± 0.23 mmol/L
- Triglyceride TG (High Fat Diet Rats): 1.03 ± 0.21 mmol/L
- Weight after administration (High Fat Diet Rats): 318 ± 28 g

SMILES: CC(C)CC(N(C)C)C1(c2ccc(Cl)cc2)CCC1 (centres unmarked) [Sibutramine, reference compound]
- Fat index (High Fat Diet Rats): 4.3 ± 1.7 g/100 g
- Free fatty acid FFA (High Fat Diet Rats): 609.6 ± 138.3 µmol/L
- Total cholesterol TC (High Fat Diet Rats): 1.32 ± 0.29 mmol/L
- Triglyceride TG (High Fat Diet Rats): 0.97 ± 0.31 mmol/L
- Weight after administration (High Fat Diet Rats): 301 ± 41 g

SMILES: CCCCCCCCCCCCCCCCCC(=O)Oc1ccc2c(=O)c(-c3ccc(OC)cc3)coc2c1 [I-3, 4′-methoxy-7-O-stearoyl daizeol]
- Fat index (High Fat Diet Rats): 5.4 ± 1.2 g/100 g
- Free fatty acid FFA (High Fat Diet Rats): 730.2 ± 186.0 µmol/L
- Total cholesterol TC (High Fat Diet Rats): 1.57 ± 0.30 mmol/L
- Triglyceride TG (High Fat Diet Rats): 1.19 ± 0.30 mmol/L
- Weight after administration (High Fat Diet Rats): 320 ± 34 g
- PPARγ2-mRNA expression quantity (PPARγ2-mRNA): significantly decreased

SMILES: CCCCCCCC/C=C\CCCCCCCC(=O)Oc1ccc2c(c1)CC[C@@H]1[C@@H]2CC[C@]2(C)C(=O)CC[C@@H]12 [OE, Oleoyl-estrone]
- Half-life ([4]; intravenous injection): 4.17 min
- Fraction absorbed in estrone water-soluble ester ([4]; oral administration): 12%
- Fraction absorbed in free estrone form ([4]; oral administration): 17%
